The nature of the test: Odor detection threshold (ODT) by olfactometer TO8 and a panel of experts according to EN 13725. Particulars: for ODT (exp.) (−log): odor detection threshold as −log; for ODT (exp.) / ODT* (exp.) (ppm (v/v)): odor detection threshold, olfactometer TO8, expert panel, EN 13725. The procedure: The ODT was measured by an olfactometer TO8 and a panel of experts according to standard EN 13725.

As to `CC1=CCC(CCC(C)CO)C1(C)C` (stereo not shown) [Brahmanol, 2-methyl-4-(2′,2′,3′-trimethyl-3′-cyclopenten-1′-yl)-butan-1-ol, reference compound], the “ODT (exp.) (−log)” value amounted to 6.85E+00, the “ODT (exp.)” value stood at 141.22 ng/L and the “ODT* (exp.) (ppm (v/v))” value was 1.73E−02 ppm (v/v).
Consider `C=C(CO)CCC1CC=C(C)C1(C)C` (stereo not shown) [Compound A, 2-methylene-4-(2,2,3-trimethylcyclopent-3-en-1-yl)butan-1-ol], for which the “ODT (exp.) (−log)” value is recorded as 8.36E+00, the “ODT (exp.)” value came out at 4.34 ng/L and the “ODT* (exp.) (ppm (v/v))” value is reported as 5.37E−04 ppm (v/v). In addition, the “factor by which threshold value is lower than Brahmanol” value (in comparison with Brahmanol) is recorded as “about 35”.

(Values after US12410113B2, “Sandalwood-type fragrance compounds” (SYMRISE AG, priority 2019, dated 2025).)
